Measured values from patent US20230234943A1, “TREX1 INHIBITORS AND USES THEREOF” (Tempest Therapeutics, Inc., priority 2020, published 2023).

Target: T1, Human TREX1 enzyme (amino acids 1-242) (Homo sapiens, UniProt Q9NSU2)
T1 construct: Human TREX1 enzyme (amino acids 1-242)
T1 sequence (Q9NSU2 1-242): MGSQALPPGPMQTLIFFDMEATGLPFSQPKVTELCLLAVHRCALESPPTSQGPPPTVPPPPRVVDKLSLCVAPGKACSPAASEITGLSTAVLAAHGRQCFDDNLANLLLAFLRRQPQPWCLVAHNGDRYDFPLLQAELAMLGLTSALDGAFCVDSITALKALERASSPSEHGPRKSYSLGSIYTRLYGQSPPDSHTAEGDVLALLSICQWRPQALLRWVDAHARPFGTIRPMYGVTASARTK
Assay: Human TREX1 enzymatic assay with dsDNA native oligonucleotide (Picogreen fluorescence)
Assay type: biochemical
Conditions: 2 mM dithiothreitol in assay buffer; 50 nM dsDNA oligonucleotide; 30 min preincubation at 25° C.; read-out: TREX1/Human + DTT IC50 AVG
Summary of the method: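 TREX1 (0.8–0.16 nM final) preincubated with compound (300 μM–13 nM or 30 μM–1.5 nM, 2% DMSO) 30 min at 25 °C in Tris pH 7.7, 5 mM MgCl2, 2 mM DTT. Annealed dsDNA (50 nM) added for 5–15 min at 25 °C; EDTA quench with Picogreen fluorescence readout.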

| SMILES | IC50 |
| --- | --- |
| COc1c(C)c(-c2nc3ccccc3n2C2CCC2)c(F)c(O)c1O [Example 297, 4-(1-cyclobutyl-1H-benzo[d]imidazol-2-yl)-3-fluoro-6-methoxy-5-methylbenzene-1,2-diol] | 10000 to 100000 nM |
| COc1c(O)c(O)cc(-c2nc3cc(N4CCC4)ccc3n2C2COC2)c1F [Example 298, 5-(5-(azetidin-1-yl)-1-(oxetan-3-yl)-1H-benzo[d]imidazol-2-yl)-4-fluoro-3-methoxybenzene-1,2-diol] | 1000 to 10000 nM |
| COc1c(C)c(-c2nc3cc(N4CCC4)ccc3n2C2CCC2)cc(O)c1O [Example 299, 5-(5-(azetidin-1-yl)-1-cyclobutyl-1H-benzo[d]imidazol-2-yl)-3-methoxy-4-methylbenzene-1,2-diol] | 10000 to 100000 nM |
| COc1cc(-c2nc3cc(Cl)c(Cl)cc3[nH]2)c(F)c(O)c1O [Example 300, 4-(5,6-dichloro-1H-benzo[d]imidazol-2-yl)-3-fluoro-6-methoxybenzene-1,2-diol] | 10000 to 100000 nM |
| COc1cc(-c2nc3c(Cl)c(Cl)ccc3n2C2(C)COC2)cc(O)c1O [Example 301, 5-(4,5-dichloro-1-(3-methyloxetan-3-yl)-1H-benzo[d]imidazol-2-yl)-3-methoxybenzene-1,2-diol] | 100 to 1000 nM |
| COc1cc(-c2nc3cc(Cl)c(Cl)cc3n2C2(C)COC2)cc(O)c1O [Example 302, 5-(5,6-dichloro-1-(3-methyloxetan-3-yl)-1H-benzo[d]imidazol-2-yl)-3-methoxybenzene-1,2-diol] | 100 to 1000 nM |
| CNC(=O)c1ccc2nc(-c3cc(OC)c(O)c(O)c3F)n(C3CCC3)c2c1 [Example 309, 1-cyclobutyl-2-(2-fluoro-3,4-dihydroxy-5-methoxyphenyl)-N-methyl-1H-benzo[d]imidazole-6-carboxamide] | ≤ 100 nM |
| COc1cc(-c2nc3ccccc3n2C2(C)COC2)c(C(F)(F)F)c(O)c1O [Example 315, 6-methoxy-4-(1-(3-methyloxetan-3-yl)-1H-benzo[d]imidazol-2-yl)-3-(trifluoromethyl)benzene-1,2-diol] | 10000 to 100000 nM |
| COc1cc(-c2nc3cc(NCCO)ccc3[nH]2)cc(O)c1O [Example 319, 5-(5-((2-hydroxyethyl)amino)-1H-benzo[d]imidazol-2-yl)-3-methoxybenzene-1,2-diol] | 1000 to 10000 nM |
| COc1cc(-c2nc3ccccc3n2C2CN(C)C2)c(C)c(O)c1O [Example 320, 6-methoxy-3-methyl-4-(1-(1-methylazetidin-3-yl)-1H-benzo[d]imidazol-2-yl)benzene-1,2-diol] | > 100000 nM |
| COc1cc(-c2nc3ccccc3n2C2CN(C(C)=O)C2)c(C)c(O)c1O [Example 321, 1-(3-(2-(3,4-dihydroxy-5-methoxy-2-methylphenyl)-1H-benzo[d]imidazol-1-yl)azetidin-1-yl)ethan-1-one] | > 100000 nM |
| COc1cc(-c2nc3ccccc3n2C2CN(S(C)(=O)=O)C2)c(C)c(O)c1O [Example 322] | 10000 to 100000 nM |
| COc1c(O)c(O)c(C)c(-c2nc3ccccc3n2C2CCC2)c1F [Example 323, 4-(1-cyclobutyl-1H-benzo[d]imidazol-2-yl)-5-fluoro-6-methoxy-3-methylbenzene-1,2-diol] | 1000 to 10000 nM |
| COc1cc(-c2nc3ccccc3n2C2CC2)c(C)c(O)c1O [Example 324, 4-(1-cyclopropyl-1H-benzo[d]imidazol-2-yl)-6-methoxy-3-methylbenzene-1,2-diol] | 1000 to 10000 nM |
| COc1cc(-c2nc3ccccc3n2C2CCC2)c(F)c(O)c1O [Example 327, 4-(1-cyclobutyl-1H-benzo[d]imidazol-2-yl)-3-fluoro-6-methoxybenzene-1,2-diol] | 1000 to 10000 nM |
| COc1cc(-c2nc3ccccc3n2C23CC(C2)C3)c(F)c(O)c1O [Example 328, 4-(1-(bicyclo[1.1.1]pentan-1-yl)-1H-benzo[d]imidazol-2-yl)-3-fluoro-6-methoxybenzene-1,2-diol] | ≤ 100 nM |
| COc1cc(-c2nc3ccccc3n2C2(C)CC2)c(F)c(O)c1O [Example 329, 3-fluoro-6-methoxy-4-(1-(1-methylcyclopropyl)-1H-benzo[d]imidazol-2-yl)benzene-1,2-diol] | 100 to 1000 nM |
| COc1cc(-c2nc3ccccc3n2C(C)(C)C)c(F)c(O)c1O [Example 330, 4-(1-(tert-butyl)-1H-benzo[d]imidazol-2-yl)-3-fluoro-6-methoxybenzene-1,2-diol] | 100 to 1000 nM |
| COc1cc(-c2nc3ccccc3n2-c2ccccc2)c(F)c(O)c1O [Example 331, 3-fluoro-6-methoxy-4-(l-phenyl-1H-1,3-benzodiazol-2-yl)benzene-1,2-diol] | 1000 to 10000 nM |

Continued, values first:

| IC50 | SMILES |
| --- | --- |
| ≤ 100 nM | COc1cc(-c2nc3ccc(-c4ccn[nH]4)cc3n2C2(C)COC2)c(F)c(O)c1O [Example 295, 3-fluoro-6-methoxy-4-(1-(3-methyloxetan-3-yl)-6-(1H-pyrazol-5-yl)-1H-benzo[d]imidazol-2-yl)benzene-1,2-diol] |
| ≤ 100 nM | COc1cc(-c2nc3ccc(-c4ncco4)cc3n2C2(C)COC2)c(F)c(O)c1O [Example 296, 3-fluoro-6-methoxy-4-(1-(3-methyloxetan-3-yl)-6-(oxazol-2-yl)-1H-benzo[d]imidazol-2-yl)benzene-1,2-diol] |
| ≤ 100 nM | COc1cc(-c2nc3cc(NC(=O)c4ccccc4)ccc3n2C2(C)COC2)c(F)c(O)c1O [Example 303, N-(2-(2-fluoro-3,4-dihydroxy-5-methoxyphenyl)-1-(3-methyloxetan-3-yl)-1H-benzo[d]imidazol-5-yl)benzamide] |
| 100 to 1000 nM | COc1cc(-c2nc3cc(NC(=O)c4cccnc4)ccc3n2C2(C)COC2)c(F)c(O)c1O [Example 304, N-(2-(2-fluoro-3,4-dihydroxy-5-methoxyphenyl)-1-(3-methyloxetan-3-yl)-1H-benzo[d]imidazol-5-yl)nicotinamide] |
| ≤ 100 nM | COc1cc(-c2nc3ccc(NC(=O)c4ccc(F)cc4)cc3n2C2(C)COC2)c(F)c(O)c1O [Example 305, 4-fluoro-N-(2-(2-fluoro-3,4-dihydroxy-5-methoxyphenyl)-1-(3-methyloxetan-3-yl)-1H-benzo[d]imidazol-6-yl)benzamide] |
| ≤ 100 nM | COc1cc(-c2nc3cc(NC(=O)c4ccncc4)ccc3n2C2(C)COC2)c(F)c(O)c1O [Example 306, N-(2-(2-fluoro-3,4-dihydroxy-5-methoxyphenyl)-1-(3-methyloxetan-3-yl)-1H-benzo[d]imidazol-5-yl)isonicotinamide] |
| ≤ 100 nM | COc1cc(-c2nc3ccc(C(=O)NC4CS(=O)(=O)C4)cc3n2C2(C)COC2)c(F)c(O)c1O [Example 307, N-(1,1-dioxidothietan-3-yl)-2-(2-fluoro-3,4-dihydroxy-5-methoxyphenyl)-1-(3-methyloxetan-3-yl)-1H-benzo[d]imidazole-6-carboxamide] |
| 100 to 1000 nM | CNC(=O)c1ccc2c(c1)nc(-c1cc(OC)c(O)c(O)c1F)n2C1(C)COC1 [Example 308, 2-(2-fluoro-3,4-dihydroxy-5-methoxyphenyl)-N-methyl-1-(3-methyloxetan-3-yl)-1H-benzo[d]imidazole-5-carboxamide] |
| ≤ 100 nM | CNC(=O)c1ccc2nc(-c3cc(OC)c(O)c(O)c3F)n(C3(C)CCC3)c2c1 [Example 310, 2-(2-fluoro-3,4-dihydroxy-5-methoxyphenyl)-N-methyl-1-(1-methylcyclobutyl)-1H-benzo[d]imidazole-6-carboxamide] |
| 100 to 1000 nM | COc1cc(-c2nc3cc(NC(C)=O)ccc3n2C2(C)COC2)c(C)c(O)c1O [Example 311, N-(2-(3,4-dihydroxy-5-methoxy-2-methylphenyl)-1-(3-methyloxetan-3-yl)-1H-benzo[d]imidazol-5-yl)acetamide] |
| ≤ 100 nM | COc1cc(-c2nc3cc(NC(C)=O)ccc3n2C2(C)COC2)c(F)c(O)c1O [Example 312, N-(2-(2-fluoro-3,4-dihydroxy-5-methoxyphenyl)-1-(3-methyloxetan-3-yl)-1H-benzo[d]imidazol-5-yl)acetamide] |
| 100 to 1000 nM | COc1cc(-c2nc3cc(NC(C)=O)ccc3n2C2CCC2)c(F)c(O)c1O [Example 313, N-(1-cyclobutyl-2-(2-fluoro-3,4-dihydroxy-5-methoxyphenyl)-1H-benzo[d]imidazol-5-yl)acetamide] |
| 100 to 1000 nM | CNc1ccc2c(c1)nc(-c1cc(OC)c(O)c(O)c1F)n2C1(C)COC1 [Example 316, 3-fluoro-6-methoxy-4-(5-(methylamino)-1-(3-methyloxetan-3-yl)-1H-benzo[d]imidazol-2-yl)benzene-1,2-diol] |
| 100 to 1000 nM | CNc1ccc2nc(-c3cc(OC)c(O)c(O)c3F)n(C3(C)COC3)c2c1 [Example 317, 3-fluoro-6-methoxy-4-(6-(methylamino)-1-(3-methyloxetan-3-yl)-1H-benzo[d]imidazol-2-yl)benzene-1,2-diol] |
| 100 to 1000 nM | COc1cc(-c2nc3ccc(Nc4ccccc4)cc3n2C2(C)COC2)c(F)c(O)c1O [Example 318, 3-fluoro-6-methoxy-4-(1-(3-methyloxetan-3-yl)-6-(phenylamino)-1H-benzo[d]imidazol-2-yl)benzene-1,2-diol] |
| 10000 to 100000 nM | CNS(=O)(=O)c1ccc2nc(-c3cc(OC)c(O)c(O)c3F)n(C3(C)COC3)c2c1 [Example 325, 2-(2-fluoro-3,4-dihydroxy-5-methoxyphenyl)-N-methyl-1-(3-methyloxetan-3-yl)-1H-benzo[d]imidazole-6-sulfonamide] |
| 1000 to 10000 nM | COc1cc(-c2nc3ncccc3n2C2(C)COC2)c(F)c(O)c1O [Example 326, 3-fluoro-6-methoxy-4-(1-(3-methyloxetan-3-yl)-1H-imidazo[4,5-b]pyridin-2-yl)benzene-1,2-diol] |
